Key:
Assay in all cases: relative viability (nuclei count vs DMSO), 5 days (fraction); higher = more cells survive
Sorafenib + AZD7762 = compound: CNC(=O)c1cc(Oc2ccc(NC(=O)Nc3ccc(Cl)c(C(F)(F)F)c3)cc2)ccn1 [Sorafenib] + NC(=O)Nc1cc(-c2cccc(F)c2)sc1C(=O)N[C@H]1CCCNC1 [AZD7762] (partner 0.2 µM)
Method in brief: (§1)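 The day after seeding in 1536-well plates, lung cancer cell lines were treated by pin tool with a single drug, or with a fixed anchor-drug dose together with five library-drug doses (not always all listed) in √10 steps. After 5 days, a combined fix-and-stain solution (final 0.05% Triton X-100, 1% formaldehyde, 1 ug/ml Hoechst) was added. Nuclei counted on 4× images gave relative viability as treated counts over vehicle counts, reported as the median of duplicate plates.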

Sorafenib + Dasatinib = compound: CNC(=O)c1cc(Oc2ccc(NC(=O)Nc3ccc(Cl)c(C(F)(F)F)c3)cc2)ccn1 [Sorafenib] + Cc1nc(Nc2ncc(C(=O)Nc3c(C)cccc3Cl)s2)cc(N2CCN(CCO)CC2)n1 [Dasatinib] (partner 0.075 µM)
Method in brief: as §1

Sorafenib + Alpelisib = compound: CNC(=O)c1cc(Oc2ccc(NC(=O)Nc3ccc(Cl)c(C(F)(F)F)c3)cc2)ccn1 [Sorafenib] + Cc1nc(NC(=O)N2CCC[C@H]2C(N)=O)sc1-c1ccnc(C(C)(C)C(F)(F)F)c1 [Alpelisib] (partner 2 µM)
Method in brief: as §1

Sorafenib + Olaparib = compound: CNC(=O)c1cc(Oc2ccc(NC(=O)Nc3ccc(Cl)c(C(F)(F)F)c3)cc2)ccn1 [Sorafenib] + O=C(c1cc(Cc2n[nH]c(=O)c3ccccc23)ccc1F)N1CCN(C(=O)C2CC2)CC1 [Olaparib] (partner 8 µM)
Method in brief: as §1

Sorafenib + Crizotinib = compound: CNC(=O)c1cc(Oc2ccc(NC(=O)Nc3ccc(Cl)c(C(F)(F)F)c3)cc2)ccn1 [Sorafenib] + C[C@@H](Oc1cc(-c2cnn(C3CCNCC3)c2)cnc1N)c1c(Cl)ccc(F)c1Cl [Crizotinib] (partner 1 µM)
Method in brief: as §1

Cell Line | relative viability (Sorafenib + AZD7762; first compound 0.08 µM) | relative viability (Sorafenib + AZD7762; first compound 0.253 µM) | relative viability (Sorafenib + AZD7762; first compound 2.53 µM) | relative viability (Sorafenib + AZD7762; first compound 8 µM) | relative viability (Sorafenib + Dasatinib; first compound 0.08 µM) | relative viability (Sorafenib + Dasatinib; first compound 0.253 µM) | relative viability (Sorafenib + Dasatinib; first compound 2.53 µM) | relative viability (Sorafenib + Dasatinib; first compound 8 µM) | relative viability (Sorafenib + Alpelisib; first compound 0.08 µM) | relative viability (Sorafenib + Alpelisib; first compound 0.253 µM) | relative viability (Sorafenib + Alpelisib; first compound 2.53 µM) | relative viability (Sorafenib + Alpelisib; first compound 8 µM) | relative viability (Sorafenib + Olaparib; first compound 0.08 µM) | relative viability (Sorafenib + Olaparib; first compound 0.253 µM) | relative viability (Sorafenib + Olaparib; first compound 2.53 µM) | relative viability (Sorafenib + Olaparib; first compound 8 µM) | relative viability (Sorafenib + Crizotinib; first compound 0.08 µM) | relative viability (Sorafenib + Crizotinib; first compound 0.253 µM) | relative viability (Sorafenib + Crizotinib; first compound 2.53 µM) | relative viability (Sorafenib + Crizotinib; first compound 8 µM)
NCI-H2087 | 1.39 | 1.08 | 1.02 | 0.264 | 1.03 | 0.744 | 0.684 | 0.154 | 0.88 | 0.81 | 0.924 | 0.341 | 0.717 | 0.566 | 0.501 | 0.116 | 0.83 | 0.746 | 0.784 | 0.308
NCI-H441 | 1.03 | 0.946 | 0.841 | 0.855 |  |  | 0.503 | 0.308 | 0.683 | 0.522 | 0.5 | 0.538 | 0.593 | 0.5 | 0.455 | 0.308 | 0.727 | 0.64 | 0.532 | 0.473
NCI-H520 |  |  |  |  | 0.231 | 0.225 | 0.216 | 0.174 | 0.963 | 0.89 | 0.902 | 0.526 | 0.356 | 0.281 | 0.313 | 0.126 | 0.912 | 0.695 | 0.67 | 0.581
COR-L 105 |  |  |  |  | 0.475 | 0.31 |  | 0.356 | 1.09 | 0.95 | 0.966 | 0.793 | 0.697 | 0.72 | 0.78 | 0.718 | 0.874 | 0.73 | 0.839 | 0.855
SW 1573 |  |  |  |  | 0.752 | 0.38 | 0.505 | 0.213 | 0.879 | 0.757 | 0.805 | 0.578 | 0.47 | 0.518 | 0.437 | 0.132 | 0.984 | 0.86 | 0.89 | 0.753
PC-3 [JPC-3] | 0.929 | 0.711 | 1.07 | 0.948 | 1.03 | 0.936 |  |  | 1.07 | 0.987 | 1.08 | 1.12 | 1.18 | 1.12 | 1.18 | 0.944 | 0.978 | 0.957 | 0.985 | 
UMC-11 |  |  |  |  | 0.509 | 0.396 | 0.357 | 0.205 | 0.999 | 0.959 | 0.968 | 0.529 | 0.39 | 0.375 | 0.38 | 0.15 | 0.558 | 0.578 | 0.541 | 0.204
SK-MES-1 |  |  |  |  | 0.434 | 0.276 | 0.41 | 0.273 | 0.957 | 0.877 | 0.854 | 0.873 | 0.664 | 0.551 | 0.648 | 0.258 | 1.06 | 0.94 | 0.92 | 0.865
NCI-H522 | 1.1 | 0.556 | 0.874 | 0.723 | 0.904 |  | 0.859 | 0.772 |  |  |  |  | 0.68 | 0.634 | 0.775 | 0.541 |  |  |  | 
NCI-H1395 | 0.424 |  | 0.428 | 0.429 | 0.454 | 0.371 | 0.423 | 0.329 | 1.26 |  | 0.981 | 0.695 | 0.517 |  | 0.515 | 0.394 |  |  |  | 
NCI-H2228 |  |  |  |  | 0.543 | 0.434 | 0.465 | 0.271 | 0.863 | 0.753 | 0.694 | 0.64 | 0.868 | 0.46 | 0.532 | 0.294 | 0.474 | 0.511 | 0.727 | 0.262
NCI-H1703 | 0.125 | 0.133 | 0.134 | 0.106 |  |  |  |  | 0.301 | 0.176 | 0.189 | 0.156 | 0.317 | 0.27 | 0.194 | 0.192 | 0.588 | 0.209 | 0.141 | 0.157
NCI-H2009 |  |  |  |  | 0.346 | 0.23 | 0.325 | 0.16 | 1.22 |  | 1.03 | 0.842 | 0.621 | 0.533 | 0.524 | 0.556 | 0.972 | 0.921 | 0.915 | 0.603
ChaGo-K-1 | 0.899 | 0.796 | 0.845 | 0.809 | 0.649 | 0.505 | 0.577 | 0.455 |  |  |  |  | 0.41 | 0.388 | 0.441 | 0.361 | 1.22 | 1.09 | 1.07 | 
IA-LM |  |  |  |  |  |  |  |  | 0.714 | 0.547 | 0.431 | 0.442 | 0.65 | 0.601 | 0.51 | 0.43 | 0.573 | 0.623 | 0.494 | 0.4
SK-LU-1 |  |  |  |  | 0.197 | 0.184 | 0.196 | 0.185 | 0.987 |  | 0.868 | 0.242 | 0.534 | 0.361 | 0.549 | 0.317 | 0.956 |  | 0.79 | 0.309
NCI-H661 |  |  |  |  | 0.978 | 0.82 | 0.815 | 0.215 | 0.949 | 0.478 | 0.596 | 0.365 | 0.726 | 0.764 | 0.679 | 0.444 | 0.944 | 0.969 | 0.921 | 0.742

— the supplement of paper PMC10307832
